Key:
TDO enzyme = biological target: T1, TDO enzyme (Homo sapiens, UniProt P48775); experiment: HPLC based TDO inhibition assay; assay type: biochemical
T1 construct: 6xHis (N); made in house; host or cells: Escherichia coli BL21 (DE3) (pET 28a vector)
In short: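 Purified enzyme (IDO1 40 nM in 100 mM KPB pH 6.5; TDO 25 nM in 50 mM KPB pH 8.0) with 150 µM L-Trp, ascorbate, methylene blue, catalase, 37 °C 1 h; compounds 100 µM–32 nM. TCA quench/hydrolysis, kynurenine quantified by HPLC at 365 nm against standard curve for % inhibition.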

[1] = biological target: T2, IDO1 enzyme (ferric and deoxy-ferrous) (Homo sapiens, UniProt P14902); experiment: Binding analysis by UV-Vis spectroscopic measurement
T2 construct: made in house; host or cells: Escherichia coli M15 (pQE30 vector with pREP4 plasmid)
T2 sequence (P14902 whole entry): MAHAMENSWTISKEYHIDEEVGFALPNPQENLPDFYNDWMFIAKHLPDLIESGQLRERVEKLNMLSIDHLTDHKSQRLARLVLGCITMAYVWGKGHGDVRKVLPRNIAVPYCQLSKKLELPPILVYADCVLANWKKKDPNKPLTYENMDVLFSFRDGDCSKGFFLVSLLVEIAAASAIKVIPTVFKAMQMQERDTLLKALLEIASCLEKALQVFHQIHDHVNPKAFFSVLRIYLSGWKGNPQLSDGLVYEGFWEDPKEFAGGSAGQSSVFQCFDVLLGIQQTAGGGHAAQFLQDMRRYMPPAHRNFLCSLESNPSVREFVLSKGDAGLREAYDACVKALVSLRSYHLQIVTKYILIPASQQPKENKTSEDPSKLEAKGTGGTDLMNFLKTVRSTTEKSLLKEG
Procedure: Figure 4 Binding properties of the potent compounds. Absorption spectra of ferric-IDO1 (A) and deoxy-ferrous-IDO1 enzyme (B) in the absence and presence of the compounds (20 μM) in 100 mM phosphate buffer at pH 6.5. [IDO1] = 0.65 μM. The ferrous-deoxy reaction environment was generated by adding Na2S2O4 to the solution under N2 atmosphere. The binding isotherms were generated from the response unit (RU) at 60 sec (average of triplicate measurements) versus the concentration of the compounds. A solid line represents a theoretical curve constructed from Rmax and Kd values determined by nonlinear least-squares analysis of the isotherms (C). 20 mm HEPES buffer, pH 7.4, with 0.16 m KCl was used for all SPR measurements. […] The model structures were generated using MoleGro Virtual Docker, version 6.0. The oxygen and nitrogen atoms are shown in red and blue, respectively. Residues involved in interactions through hydrogen bond formation are shown using dashed lines (yellow). Images were generated using PyMol.
The efficacy of the compound’s direct binding to the enzyme active site was measured by UV-Vis spectroscopic analysis[26]–[28],[30]. All the measurements were performed at room temperature using 100 mM KPB (pH 6.5), purified hIDO1 enzyme (3 µM), and selected compounds (20 µM. The deoxy-reaction system was generated by injecting Na2S2O4 (~10-fold excess) into the solution pre-purged with N2 gas.

[2] = biological target: T3, purified human TDO enzyme (Homo sapiens, UniProt P48775); experiment: TDO inhibition assay by the spectrometric method; assay type: biochemical
T3 construct: 6xHis (N); made in house; host or cells: Escherichia coli BL21 (DE3) (pET 28a vector)
T3 sequence (P48775 whole entry): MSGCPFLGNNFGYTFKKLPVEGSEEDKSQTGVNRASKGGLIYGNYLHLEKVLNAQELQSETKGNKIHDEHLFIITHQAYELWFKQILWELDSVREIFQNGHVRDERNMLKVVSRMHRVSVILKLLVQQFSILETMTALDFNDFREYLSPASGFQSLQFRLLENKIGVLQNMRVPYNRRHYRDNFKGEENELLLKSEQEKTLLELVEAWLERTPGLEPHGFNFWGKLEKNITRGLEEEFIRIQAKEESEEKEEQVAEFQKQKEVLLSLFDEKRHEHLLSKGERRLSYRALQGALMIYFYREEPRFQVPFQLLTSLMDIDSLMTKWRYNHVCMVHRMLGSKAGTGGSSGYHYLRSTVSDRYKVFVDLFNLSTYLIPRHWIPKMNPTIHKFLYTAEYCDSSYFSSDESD
In short: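 Purified enzyme (IDO1 40 nM in 100 mM KPB pH 6.5; TDO 25 nM in 50 mM KPB pH 8.0) was run with 150 µM L-Trp, ascorbate, methylene blue and catalase at 37 °C for 1 h. Inhibitors were tested from 100 µM to 32 nM. After TCA quench, kynurenine was read with pDMAB at 480 nm.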

IDO1 = IDO1 (Homo sapiens, UniProt P14902); experiment: Circular dichroism analysis of IDO1 enzyme; set-up: made in house; host or cells: Escherichia coli M15 (pQE30 vector with pREP4 plasmid)
Sequence of IDO1 (P14902 whole entry): as the sequence (P14902 whole entry) above
Procedure: The Circular Dichroism (CD) spectra of the IDO1 enzyme in the absence or presence of compounds were recorded with a Jasco-810-spectropolarimeter according to the reported procedure[37],[38]. Samples of rIDO1 (2 μM) were prepared in 10 mM KPB buffer (pH 6.5) in a […] quartz cuvette. Spectra were recorded by varying the concentration of the compound (250 nM to 4 µM) using a 1 mL quartz cuvette of 1 cm path length with a Jasco J-1500 spectropolarimeter at 17 °C. Also the spectra were collected at a scan rate […] and 1 nm bandwidth from 200 nm to 260 nm with three times scan for averaging. All final spectra were corrected for buffer background CD signals. The % of the secondary structures of the IDO1 enzyme was analyzed using the inbuilt software of the instrument.

T1 sequence (P48775 whole entry): as the sequence (P48775 whole entry) above

**Q.** Which results are given for NS(=O)(=O)NCCNC(=O)c1n[nH]nc1-c1ccc(F)c(F)c1 [Compound 4k]?
**A.** inhibition at 0.032 µM (TDO enzyme; 32 nM): 13%; inhibition at 0.16 µM (TDO enzyme; 160 nM): 24%; inhibition at 0.8 µM (TDO enzyme; 800 nM): 46%; inhibition at 4 µM (TDO enzyme; 4 µM): 58%; inhibition at 20 µM (TDO enzyme; 20 µM): 63%; inhibition at 100 µM (TDO enzyme; 100 µM): 68%; Soret band red-shift ([1]; both ferric-IDO1 and deoxy-ferrous-IDO1): 5–8 nm; Q-band shift ([1]; deoxy-ferrous-IDO1, Q-band at 551 nm for only enzyme): 10–13 nm; inhibitory efficacies against TDO enzyme ([2]; both spectrophotometric and kynurenine assay): moderate to poor; inhibition at 0.032 µM ([2]; spectrophotometric, 32 nM): 3%; inhibition at 0.16 µM ([2]; spectrophotometric, 160 nM): 6%; inhibition at 0.8 µM ([2]; spectrophotometric, 800 nM): 16%; inhibition at 4 µM ([2]; spectrophotometric, 4 µM): 32%; inhibition at 20 µM ([2]; spectrophotometric, 20 µM): 45%; inhibition at 100 µM ([2]; spectrophotometric, 100 µM): 50%; % of Secondary structural elements, Beta (IDO1; compound 0.25 µM): 3.6%; % of Secondary structural elements, Helix (IDO1; compound 0.25 µM): 26.8%; % of Secondary structural elements, Random (IDO1; compound 0.25 µM): 34.3%; % of Secondary structural elements, Turn (IDO1; compound 0.25 µM): 35.3%; % of Secondary structural elements, Beta (IDO1; compound 0.5 µM): 0%; % of Secondary structural elements, Helix (IDO1; compound 0.5 µM): 30.6%; % of Secondary structural elements, Random (IDO1; compound 0.5 µM): 31.2%; % of Secondary structural elements, Turn (IDO1; compound 0.5 µM): 38.2%; % of Secondary structural elements, Beta (IDO1; compound 1 µM): 0%; % of Secondary structural elements, Helix (IDO1; compound 1 µM): 28%; % of Secondary structural elements, Random (IDO1; compound 1 µM): 33.9%; % of Secondary structural elements, Turn (IDO1; compound 1 µM): 38.1%; % of Secondary structural elements, Beta (IDO1; compound 2 µM): 0%; % of Secondary structural elements, Helix (IDO1; compound 2 µM): 23.8%; % of Secondary structural elements, Random (IDO1; compound 2 µM): 46.0%; % of Secondary structural elements, Turn (IDO1; compound 2 µM): 30.2%; % of Secondary structural elements, Beta (IDO1; compound 4 µM): 0%; % of Secondary structural elements, Helix (IDO1; compound 4 µM): 29.1%; % of Secondary structural elements, Random (IDO1; compound 4 µM): 36.4%; % of Secondary structural elements, Turn (IDO1; compound 4 µM): 34.5%
